Read-outs that look alike come from different tables or passages of the source.
Legend:
[1] = test system: BCL6 reporter construct (3xBCL6-TK-Luc) in SuDHL4 cells; assay: Cell-based luciferase assay
Experimental: Cell-Based Luciferase Assay
A BCL6 reporter construct containing three copies of the consensus BCL6 binding site, the TK promoter, and the firefly luciferase gene was stably expressed in SuDHL4 cells after lentivirus infection and selection with Blasticidin. SuDHL4-3×BCL6-TK-Luc cells were seeded into a Viewplate 384-well assay dish at 15,000 cells/well in 25 ul medium (Alpha-MEM high glucose containing 10% FBS, 25 mM HEPES, […] GlutaMAX, 100 ug/ml Normocin, and […] Gentamycin, Invitrogen). A HP D300 digital dispenser was used to dose cells with DMSO or test compounds across a 10-point range of concentrations (high dose of 10 uM), and cultures were grown in a humidified 5% CO2 incubator at 37° C. After two days, plates were removed from the incubator and equilibrated to room temperature. An equal volume of neolite reporter gene assay reagent was added to each well, and samples were processed according to manufacturer's instructions (Perkin Elmer). Luminescent signal was measured using an Envision plate reader equipped with a US-Luminescence detector.

[2] = biological target: BCL6 BTB domain (Homo sapiens (Human), UniProt P41182); assay: Surface plasmon resonance (SPR) assay; format: binding; conditions: BCL6 BTB domain captured on SA chip, single cycle kinetics
[3] = test system: Karpas422 cells; assay: Tumor cell growth inhibition assay; format: cell-based
Experimental: Tumor Cell Growth inhibition Assay
Karpas422 cells were seeded into a 96-well plate at 2,000 cells/well in 150 ul medium (Alpha-MEM containing 10% FBS, […] Normocin, and […] Gentamycin, Invitrogen). A HP D300 digital dispenser was used to dose cells with DMSO or test compounds across a 10-point range of concentrations (high dose of 5 uM), and cultures were grown in a humidified 5% CO2 incubator at 37° C. After six days, plates were removed from incubator and equilibrated to room temperature. An equal volume of ATPlite assay reagent was added to each well, and samples were processed according to manufacturer's instructions (Perkin Elmer). Luminescent signal was measured using an Envision plate reader equipped with a US-Luminescence detector.

[4] = Homo sapiens, SU-DHL-4, 48 h, read-out: Luciferase-Assay EC50, uM), SuDHL4-3xBCL6-TK-Luc cells, two days, high dose 10 uM
[5] = Homo sapiens, KARPAS-422, 144 h, read-out: Tumor Growth Inhibition in Karpas-422 (IC50, uM), Karpas422 cells, six days, ATPlite
[6] = read-out: Tumor Growth Inhibition in Karpas-422 (IC50), Karpas422 cells, six days, ATPlite

## CN1C(C)(C)CN(c2cc(NC(=O)Cn3cc(-c4cc(Cl)c(O)c(C(N)=O)c4)c4c(=O)n(C)cnc43)c(Cl)cn2)CC1(C)C [Compound I-146]
[1]; [4]
  EC50: 0.182 µM
[2]
  Kd: 0.0184 µM
[3]; [5]
  IC50: 0.121 µM

## Cn1cnc2c(c(-c3cc(Cl)c(O)c(C(N)=O)c3)cn2CC(=O)Nc2cc(N3CCOC(C)(C)C3)ncc2Cl)c1=O [Compound I-147]
[1]; [4]
  EC50: 0.144 µM
[2]
  Kd: 0.0196 µM
[3]; [5]
  IC50: 0.0995 µM

## CN(C1CCC(c2cc(NC(=O)Cn3cc(-c4cc(Cl)c(O)c(C(N)=O)c4)c4c(=O)n(C)cnc43)c(Cl)cn2)C1)S(C)(=O)=O (stereo not drawn) [Compound I-148]
[1]; [4]
  EC50: 1.31 µM
[2]
  Kd: 0.0209 µM
[3]; [5]
  IC50: 0.541 µM

## CN(C1CCC(c2cc(NC(=O)Cn3cc(-c4cc(Cl)c(O)c(C(N)=O)c4)c4c(=O)n(C)cnc43)c(Cl)cn2)C1)S(C)(=O)=O (stereo not drawn) [Compound I-149]
[1]; read-out: Luciferase-Assay EC50, SuDHL4-3xBCL6-TK-Luc cells, two days, high dose 10 uM
  EC50: 0.725 µM
[2]
  Kd: 0.0163 µM
[3]; [6]
  IC50: 0.617 µM

## COC[C@@H]1COCCN1c1cc(NC(=O)Cn2cc(-c3cc(Cl)c(O)c(C(N)=O)c3)c3c(=O)n(C)cnc32)c(Cl)cn1 [Compound I-150]
[1]; [4]
  EC50: 0.184 µM
[2]
  Kd: 0.0128 µM
[3]; [5]
  IC50: 0.124 µM

## COC[C@H]1COCCN1c1cc(NC(=O)Cn2cc(-c3cc(Cl)c(O)c(C(N)=O)c3)c3c(=O)n(C)cnc32)c(Cl)cn1 [Compound I-151]
[1]; [4]
  EC50: 0.168 µM
[2]
  Kd: 0.0106 µM
[3]; [5]
  IC50: 0.144 µM

## Cn1cnc2c(c(-c3cc(Cl)c(O)c(C(N)=O)c3)cn2CC(=O)Nc2cc(N3Cc4ccncc4C3)ncc2Cl)c1=O [Compound I-152]
[1]; [4]
  EC50: 0.168 µM
[2]
  Kd: 0.0207 µM
[3]; [5]
  IC50: 0.134 µM

## COc1cc(-c2cn(CC(=O)Nc3cc(N4CCOC[C@@H]4C)ncc3Cl)c3ncn(C)c(=O)c23)cc(C(N)=O)c1O [Compound I-153]
[1]; [4]
  EC50: 0.313 µM
[2]
  Kd: 0.00414 µM
[3]; [5]
  IC50: 0.176 µM

## Cn1cnc2c(c(-c3cc(Cl)c(O)c(C(N)=O)c3)cn2CC(=O)Nc2cc(N3CC4CC3CO4)ncc2Cl)c1=O (stereo not drawn) [Compound I-154]
[1]; [4]
  EC50: 0.469 µM
[2]
  Kd: 0.0339 µM
[3]; [5]
  IC50: 0.559 µM

## Cn1cnc2c(c(-c3cc(Cl)c(O)c(C(N)=O)c3)cn2CC(=O)Nc2cc(N3CC4CC4C3)ncc2Cl)c1=O (stereo not drawn) [Compound I-155]
[1]; [4]
  EC50: 0.923 µM
[2]
  Kd: 0.0326 µM
[3]; [5]
  IC50: 1.55 µM

## Cn1cnc2c(c(-c3cc(Cl)c(O)c(C(N)=O)c3)cn2CC(=O)Nc2cc(N3CCCC4(CCOCC4)C3)ncc2Cl)c1=O [Compound I-156]
[1]; [4]
  EC50: 0.941 µM
[2]
  Kd: 0.0496 µM
[3]; [5]
  IC50: 0.576 µM

## C[C@H]1COCCN1c1cc(NC(=O)Cn2cc(-c3cc(F)c(O)c(C(N)=O)c3)c3c(=O)n(C)cnc32)c(Cl)cn1 [Compound I-157]
[1]; [4]
  EC50: 0.18 µM
[2]
  Kd: 0.0061 µM
[3]; [5]
  IC50: 0.148 µM

## Cn1cnc2c(c(-c3cc(F)c(O)c(C(N)=O)c3)cn2CC(=O)Nc2cc(N3C[C@H]4CCO[C@H]4C3)ncc2Cl)c1=O [Compound I-158]
[1]; [4]
  EC50: 1.01 µM
[2]
  Kd: 0.00176 µM
[3]; [5]
  IC50: 0.249 µM

## Cc1nc2cc(Cl)c(NC(=O)Cn3cc(-c4cc(F)c(O)c(C(N)=O)c4)c4c(=O)n(C)cnc43)cc2o1 [Compound I-159]
[1]; [4]
  EC50: 0.282 µM
[2]
  Kd: 0.0477 µM
[3]; [5]
  IC50: 0.282 µM

## Cc1nc2cc(Cl)c(NC(=O)Cn3cc(-c4cc(F)c(O)c(C(N)=O)c4)c4c(=O)n(C)cnc43)cc2s1 [Compound I-160]
[1]; [4]
  EC50: 0.396 µM
[2]
  Kd: 0.0391 µM
[3]; [5]
  IC50: 0.507 µM

## C[C@H]1COCCN1c1cc(NC(=O)Cn2cc(-c3cc(C(N)=O)c(O)cc3F)c3c(=O)n(C)cnc32)c(Cl)cn1 [Compound I-161]
[1]; [4]
  EC50: 0.971 µM
[2]
  Kd: 0.115 µM
[3]; [5]
  IC50: 1.29 µM

## Cn1cnc2c(c(-c3cc(C(N)=O)c(O)cc3F)cn2CC(=O)Nc2cc(N3CC4CCC(C3)O4)ncc2Cl)c1=O [Compound I-162]
[1]; [4]
  EC50: 0.676 µM
[2]
  Kd: 0.0847 µM
[3]; [5]
  IC50: 0.643 µM

## Cn1cnc2c(c(-c3cc(C(N)=O)c(O)cc3F)cn2CC(=O)Nc2cc(N3C[C@H]4CCO[C@H]4C3)ncc2Cl)c1=O [Compound I-163]
[1]; [4]
  EC50: 0.572 µM
[2]
  Kd: 0.0505 µM
[3]; [5]
  IC50: 0.93 µM

## COC[C@H]1COCCN1c1cc(NC(=O)Cn2cc(-c3cc(Cl)c(O)c(C(N)=O)c3)c3c(=O)[nH]cnc32)c(Cl)cn1 [Compound I-164]
[1]; [4]
  EC50: 0.601 µM
[2]
  Kd: 0.00776 µM
[3]; [5]
  IC50: 0.251 µM

## C[C@@H]1CN(c2cc(NC(=O)Cn3cc(-c4cc(Cl)c(O)c(C(N)=O)c4)c4c(=O)[nH]cnc43)c(Cl)cn2)C[C@H](C)O1 [Compound I-166]
[1]; [4]
  EC50: 0.184 µM
[2]
  Kd: 0.015 µM
[3]; [5]
  IC50: 0.0862 µM

## C[C@H]1COCCN1c1cc(NC(=O)Cn2cc(-c3cc(C(N)=O)c(O)c(Cl)c3F)c3c(=O)n(C)cnc32)c(Cl)cn1 [Compound I-167]
[1]; [4]
  EC50: 2.81 µM
[2]
  Kd: 0.299 µM
[3]; [5]
  IC50: 2.34 µM

## COc1c(O)c(C(N)=O)cc(-c2cn(CC(=O)Nc3cc(N4CCOC[C@@H]4C)ncc3Cl)c3ncn(C)c(=O)c23)c1F [Compound I-168]
[1]; [4]
  EC50: 1.3 µM
[2]
  Kd: 0.074 µM
[3]; [5]
  IC50: 0.769 µM

## Cn1cnc2c(c(-c3cc(C(N)=O)c(O)c(Cl)c3F)cn2CC(=O)Nc2cc(N3CCOCC3)ncc2Cl)c1=O [Compound I-169]
[1]; [4]
  EC50: 1.96 µM
[2]
  Kd: 0.206 µM
[3]; [5]
  IC50: 1.89 µM

## C[C@@H]1CN(c2cc(NC(=O)Cn3cc(-c4cc(C(N)=O)c(O)c(Cl)c4F)c4c(=O)n(C)cnc43)c(Cl)cn2)C[C@H](C)O1 [Compound I-170]
[1]; [4]
  EC50: 2.14 µM
[2]
  Kd: 0.369 µM
[3]; [6]
  IC50: 10 µM

## COc1c(O)c(C(N)=O)cc(-c2cn(CC(=O)Nc3cc(N4CCOCC4)ncc3Cl)c3ncn(C)c(=O)c23)c1F [Compound I-171]
[1]; [4]
  EC50: 1.2 µM
[2]
  Kd: 0.0997 µM
[3]; [5]
  IC50: 1.04 µM

## COc1c(O)c(C(N)=O)cc(-c2cn(CC(=O)Nc3cc(N4C[C@@H](C)O[C@@H](C)C4)ncc3Cl)c3ncn(C)c(=O)c23)c1F [Compound I-172]
[1]; [4]
  EC50: 0.797 µM
[2]
  Kd: 0.167 µM
[3]; [5]
  IC50: 1.34 µM

## Cn1cnc2c(c(-c3cc(Cl)c(O)c(C(N)=O)c3)cn2CC(=O)Nc2cn3ccnc3cc2Cl)c1=O [Compound I-173]
[1]; [4]
  EC50: 44.6 µM
[2]
  Kd: 0.2 µM
[3]; [5]
  IC50: 5.72 µM

## Cn1cnc2c(c(-c3cc(Cl)c(O)c(C(N)=O)c3)cn2CC(=O)Nc2cc3nccn3cc2Cl)c1=O [Compound I-174]
[1]; [4]
  EC50: 10 µM
[2]
  Kd: 2.95 µM
[3]; [5]
  IC50: 10 µM

Reference: patent publication US11518764B2, “Substituted heteroaryls as inhibitors of the BCL6 BTB domain protein-protein interaction” (Ontario Institute for Cancer Research (OICR), priority 2018, dated 2022)
